We go through four compounds from patent publication US9011863B2, “Combinations of kinase inhibitors for the treatment of cancer” (Exelixis, Inc., priority 2010, dated 2015).

Test [1] relates to HER3 mRNA. Kind of test: real-time qPCR of HER3 mRNA. Conditions: for HER3 mRNA/protein or pHER3: data not shown. It counts as cell-based, human. On the procedure:
FIG. 12B depicts a bar chart of timed HER3 mRNA transcription in BT474 cells which were treated with 2 μM 5J8, 20 μM LY294002, and 50 nM rapamycin for 10 hours prior to RNA isolation and qPCR analysis with HER3-specific primers.
(In general: Quantitative PCR measures a nucleic acid by following its amplification.)

Test [2] deals with HER3 mRNA. Conditions: ovarian cancer cells; cited from earlier work.
In test [3] the test system is HER3, pHER3^Y1289, pAKT^S473. Kind of test: immunohistochemistry of BT474 xenografts. The conditions noted are these: day 28. In kind it is in vivo, mice. On the procedure: FIG. 18B depicts photomicrographs of immunohistochemistry sections from formalin-fixed, paraffin-embedded tumor blocks. Xenografts were harvested on day 28, 1 hour after the last dose of lapatinib and/or compound A. Antibodies used were against HER3, pHER3^Y1289, and pAKT^S473. Photographs were taken at 400× magnification (scale bar: 50 μm).
All tumor samples (collected within 1 hour of last treatment) were fixed in 10% neutral buffered formalin for 24 hours at room temperature, followed by dehydration and paraffin embedding. Immunostaining was done on 5-μm tissue sections. After deparaffinization in xylene and graded alcohols heat-induced antigen retrieval was performed in a pH 6.0 citrate buffer followed by incubation with 3% hydrogen peroxide for 20 minutes, with protein block (Dako) for 10 minutes, and finally with primary antibody overnight at 4° C. The Envision Visualization System (Dako, Carpinteria, Calif., USA) was used, followed by DAB as chromagen and counterstained with hematoxylin. Tumor sections were studied on a light microscope with an ocular magnification of 400 times. Average percentage and intensity of tumor cell staining was calculated as a histoscore (H-score) (as described in Goulding, H., et al. (1995), Hum. Pathol. 26:291-294, which is incorporated herein by reference in its entirety). An expert pathologist (MGK) scoring the sections was blinded to the type of treatment.
Using immunohistochemistry (IHC), experiments were performed to examine pharmacodynamic biomarkers of target inactivation in xenografts after 28 days of treatment. […] Therefore, experiments were performed to quantify differences in pAKT^S473 expression in both cytoplasmic and nuclear compartments in xenograft sections.

The next test concerns BT474 xenografts. Kind of test: BT474 xenograft experiments. The conditions noted are these: trastuzumab 30 mg/kg twice-a-week i.p.; lapatinib 100 mg/kg daily; compound A 100 mg/kg daily gavage; 28 days. In kind it is in vivo, mice.

Regarding `O=C(NOCC1CC1)c1ccc(F)c(F)c1Nc1ccc(I)cc1Cl` [CI-1040], in the test with HER3 mRNA [1], the “HER3 mRNA/protein or pHER3” value is reported as “did not upregulate HER3 mRNA/protein or pHER3”. For `CS(=O)(=O)N1CCN(Cc2cc3nc(-c4cccc5[nH]ncc45)nc(N4CCOCC4)c3s2)CC1` [GDC-0941], the “HER3 mRNA downregulation by heregulin” value with HER3 mRNA [2] is recorded as “blocked downregulation of the HER3 mRNA”. With `CO[C@H]1C[C@@H]2CC[C@@H](C)[C@@](O)(O2)C(=O)C(=O)N2CCCC[C@H]2C(=O)O[C@H]([C@H](C)C[C@@H]2CC[C@@H](OCCO)[C@H](OC)C2)CC(=O)[C@H](C)/C=C(\C)[C@@H](O)[C@@H](OC)C(=O)[C@H](C)C[C@H](C)/C=C/C=C/C=C/1C` [RAD001, everolimus], the “HER3 mRNA/protein or pHER3” value with HER3 mRNA [1] is recorded as “did not upregulate HER3 mRNA/protein or pHER3”. Regarding `CS(=O)(=O)CCNCc1ccc(-c2ccc3ncnc(Nc4ccc(OCc5cccc(F)c5)c(Cl)c4)c3c2)o1` [lapatinib, reference compound], the “pHER3 by IHC” value in test [3] is on record as “more effective than trastuzumab in reducing pHER3”. Further, in the test with BT474 xenografts, the “tumor growth, monotherapy” value was “significantly delayed tumor growth”. Moreover, the “HER3 mRNA levels” value in the test on HER3 mRNA [1] (BT474, compound A 6 μM, lapatinib 1 μM, trastuzumab 10 μg/ml, 10 hours) is given as “markedly induced HER3 mRNA”.
